Laboratory results: patent publication US6057153A, “Stabilized external guide sequences” (Yale University, priority 1997, dated 2000)

Columns and labels:
[1] = tested on: APL RNA (PML-RARα fusion junction); assay: Test tube cleavage assay; assay type: biochemical; conditions: 0.25 μM EGS, RNase P from HeLa cells
Description: Test tube cleavage assay: Three nanograms of linearized pAPL-3Z3 plasmid with HindIII restriction enzyme was transcribed as described in Example 1 in presence of ^32 P-ATP for 30 minutes 0.25 μM (final concentration) of EGS and 2 μl of a purified preparation of RNase P from HeLa cells (Bartkiewicz et al., Genes and Development, 3:488-499 (1989)) was added to the transcription reaction during the transcription. The reaction products were separated on a denaturing polyacrylamide gel and visualized using a Molecular Dynamics PHOSPHORIMAGER™.

NB4/D5 cells = assay: MTT proliferation assay; assay type: cell-based, human; conditions: for effect on cell growth as measured by MTT assay: NB4/D5 cells, 1 to 10 μM EGS, daily replacement; for concentration above which dose dependent inhibition of NB4 cell growth was observed: NB4 cells, MTT assay
Description: Cell culture testing: NB4 cells, a maturation inducible cell line with t(15;17) translocation marker isolated from an acute promyelocytic leukemia patient (Lanotte et al. (1991)) was used to test the antiproliferative activity of EGSs targeted to PML-RARα. These cells respond to maturation-inducing effects of all-trans retinoic acid. One subclone of NB4 cells, NB4/D5, which uniformly responds to retinoic acid (Ahn et al. (1995)), was used for cell culture testing. The NB4 cells were grown in RPMI media containing 10% fetal bovine serum (Intergen, Purchase, N.Y.), 100 U/ml penicillin, 200 μg/ml streptomycin, and 20 mM glutamine with pCO2 of 5% at 37° C.
All treatments were done in triplicate and experiments were repeated more than once. NB4/D5 cells which were maintained in logarithmic growth phase were seeded at a density of 1×10^5 cells in 1 ml of RPMI medium in a 24 well tissue culture plate. Increasing concentrations of EGS were added to the cells. More than 90% of the media was removed every 24 hours and replaced with fresh media containing the same concentration of EGS. An aliquot of the cells was removed every 24 hours and an MTT proliferation assay (as described by Mosmann et al., Journal of Immunological Methods, 65:55 (1983)) was performed on these cells.

HBV RNA = assay: RNase protection assay after transfection of pol III EGS expression vectors; assay type: cell-based; conditions: HepG2.2.15 cells transfected with EGS plasmids
Excerpt: Cloning of EGS 2 and EGS 62: pREP9 (Invitrogen, San Diego, Calif.), an Epstein-Barr virus-based vector (Yates et al., Nature, 313:812-815 (1985)), was cut with XbaI and KpnI to remove the RSV LTR promoter sequence in the vector and a 244 nucleotide human U6 promoter (hU6; from nucleotide +1 to -244) was cloned into this region. cDNAs corresponding to EGS 2 and EGS 62 (see FIGS. 19 and 20, respectively) were synthesized on an Applied Biosystems DNA synthesizer, purified and cloned downstream of the hU6 promoter between KpnI and BamHI. The EGS sequence and the hU6 promoter sequence were excised using XbaI and BamHI and subcloned in pCEP4 (Invitrogen, San Diego, Calif.) that had been digested with BglII and NheI. […]
All plasmids were amplified in bacteria and the plasmid DNAs were purified using Qiagen (Qiagen Inc., Chatsworth, Calif.) columns. […] The protected fragments were separated on a 6% denaturing polyacrylamide gel, and the radioactivity associated with the protected bands were quantitated using a Molecular Dynamics PHOSPHORIMAGER™. The quantitation of the GAPDH RNA was used to normalize the samples.

[2] = APL patients, cited from earlier work
Substrate RNA (SUB-156) = assay: RNase P-mediated cleavage assay, single turnover conditions; assay type: biochemical, hepatitis B virus (HBV); conditions: 200 nM EGS, 20 nM substrate, saturating RNase P, 60 min
Description: RNase P-mediated cleavage assay--Human RNase P was purified from HeLa cells according to the published procedures (14). Substrate RNA (SUB-156, FIG. 24) was 5'-end labeled using T4 polynucleotide kinase and [γ-^32P]ATP. The labeling mixture was then heated to 85° C. for 1 min, diluted with RNase-free water, and purified by a MICROSPIN™ G-25 column (Pharmacia) according to the manufacturer's instructions. Cleavage reactions were conducted in a reaction buffer containing 50 mM Tris-HCl (pH 7.4), 25 mM KCl, 10 mM MgCl2 and 0.1 mM EDTA. EGS oligomers and ^32 p-5'-end-labeled RNA substrate were heated in the reaction buffer without MgCl2 to 85° C. for 1 min and then slowly cooled to room temperature. The cleavage reaction was initiated by adding 2 μl of 100 mM MgCl2 and 3 μl of RNase P (enzyme activity for this preparation: cleavage of 0.035 pmol of tRNA^Tyr precursor min^-1 μl^-1). The final reaction volume was 20 μl and the reaction was incubated at 37° C. for 60 min. […] For each sample, cleavage reactions were performed in duplicates and the average values were used. To ensure reproducibility, cleavage assays for each EGS were also repeated in two separate experiments. The all-RNA EGS-159 was used as the reference sample and its cleavage values were counted as 100%. Cleavage percentages of all other EGSs were normalized against EGS-159 (Rel. Cleavage %) except in FIG. 30 and FIG. 31 where absolute cleavage percentages (Abs. Cleavage %) were plotted.
(§1) For EGS-single turnover conditions, the final concentrations were 200 nM for EGS and 20(nM for the RNA substrate. For EGS-multiple turnover conditions, the final concentrations were 200 nM for the RNA substrate and 40 nM for EGS. When determination of the time-course was required, the reaction volume was increased to 40 μl. Aliquots of 5-8 μl were removed from the reaction mixture at different time points (e.g. 1, 5, 15, 30 and 60 min), quenched in formamide loading buffer, and loaded onto 15% polyacrylamide/8 M urea gels. Quantitation of the cleavage product and the remaining RNA substrate was achieved using a Molecular Dynamics PHOSPHORIMAGER™.
General considerations--To select lead nuclease-resistant oligonucleotide prototypes as external guide sequences among many possible modifications, a reliable yet rapid in vitro cleavage assay for routine screening was used. Human RNase P, a ribonucleoprotein, is composed of a 340-nt H1 RNA component and one or more proteins (for recent review, see Ref. 16). A 3-step screening strategy was devised: 1) All analogues once synthesized were tested by a fast qualitative cleavage assay under single turnover conditions with 10-fold excess of EGS over target RNA substrate for 60 min. […] This was the best cleavage condition used in this study. Any analogue with a reasonable activity (e.g. more than 5% cleavage) would not be missed, under these circumstances, due to the high detection sensitivity provided by PHOSPHORIMAGER™. 2) Promising analogues were then assayed for stability in 50% human serum.

[3] = Nuclease resistance studies in 50% human serum; assay type: in vitro ADME; conditions: 37° C., 24 h
Description: Nuclease resistance studies--100 μl of EGS oligonucleotides (5 μM), containing a trace of 5'-end-labeled oligomers, were incubated at 37° C. for different time periods (0-24 h) with 50% human serum (Sigma, S-7023). 20 μl aliquots were diluted to 100 μl with RNase-free water, phenol/chlorform extracted, and ethanol precipitated. The residue was resuspended in 10 μl of TE and 10 μl of 2× gel loading buffer containing 98% formamide, 10 mM1 EDTA and 0.1% bromophenol blue. The mixture was heated to 85° C. for 1 min, quickly cooled on ice and frozen at -20° C. prior to electrophoresis on 15% polyacrylamide/8 M urea gels. Gels were subsequently scanned on a Molecular Dynamics PHOSPHORIMAGER™, and the stability profile for each, oligomer was estimated from the ratio of the remaining intact materials versus all radio-labeled materials (intact oligomers plus degradation products). Stability studies of non radio-labeled EGS oligomers using capillary gel electrophoresis were also carried out according to the method of Leeds et al. (15).

[4] = tested on: EGS/target RNA complex (SUB-156) with human RNase P; assay: Measurements of kcat and A50; assay type: biochemical, hepatitis B virus (HBV)
Description: Measurements of kcat, Km and A50 --Measurements of these kinetic parameters were carried out using conditions similar to those described above (e.g. identical cleavage buffers). For kcat measurements, aliquots were taken every 30-60 s for the first 5 min. The logarithm of the percentage of cleavage (Abs. Cleavage %) was plotted against time, and the data points were fitted using a linear least-squaresanalysis. The slope represents kcat values. For Km measurements,a fixed amount of RNase P (0.6 μl) was used, while substrate concentrations (i.e. EGS/target RNA complex) varied from 25 to 500 nM. Several EGS/target RNA ratios were assayed including 1:1, 5:1 and 10:1. Attempts were made to obtain Km and Vmax values from linear Lineweaver-Burk or Eadie-Hofstee plots. The scattered values could not be fit as a hyperbolic function. For A50 measurements, the ratio between EGS and target RNA was kept as 10:1. Various amounts of RNase P (0.3 to 3 μl) were used to conduct a 60-min cleavage reaction. Percentage of cleavage was plotted against [RNase P] in μl, and 50% cleavage values (A50) were determined using a non-linear, least-squares routine (Kaleidagraph, Synergy Software). The amount of RNase P required to reach A50 was then converted to enzyme unit. 1 unit of RNase P represents the amount of RNase P that catalyzes the conversion of 1 pmol of tRNA^Tyr precursor to cleavage products per minute per μl of the enzyme preparation. 1 unit of RNase P preparation used for this study equals 28.57 μl.

target RNA SUB-156 = assay: RNase P-mediated cleavage, EGS-multiple turnover conditions; assay type: biochemical, hepatitis B virus (HBV); conditions: 5-fold of RNA target over EGS
Description: FIG. 31 is a graph of a time-course of cleavage with selected EGSs under EGS-multiple turnover conditions. Experiments were conducted under similar conditions as that used in FIG. 30 with the exception that the molar ratio between ^32 P-5'-end-labeled target RNA SUB-156 and the respective EGSs was 5:1. Saturing amounts of RNase P were employed. Aliquots were withdrawn from the cleavage reaction at different time points, quenched in formamide loading buffer and loaded on 15% polyacryladmide/8 M urea gels. Absolute percentages of cleavage are expressed on the Y-axis. EGS-159 (.circle-solid.) is the all-RNA EGS control and EGS-407 (.smallcircle.) is one of the lead modified prototypes.
as §1

In the case of “APL 1009: EGS SEQ ID NO. 12 targeted to the fusion junction of PML-RARα (guide GUCUCAAGAAGGUUCGAAUCCUUCGGCUGCC; chemistry not given here)”, the “cleavage of the APL RNA at the fusion junction” value [1] is reported as “induced cleavage”, the “effect on cell growth as measured by MTT assay” value (NB4/D5 cells) is reported as “inhibitory to cell growth” and the “concentration above which dose dependent inhibition of NB4 cell growth was observed” value (NB4/D5 cells) is reported as “above 3 μM”.

In the case of “EGS 2A: SEQ ID NO. 27, anti-HBV EGS expressed from hU6 pol III vector (guide GTGCTCGCTTCGGCAGCACTATACGCAGCGATCCGGGTTCCCGGCCAGGACACTATTTTT)”, the “inhibition of HBV RNA expression (ranking)” value (HBV RNA) is reported as “maximal inhibition”.

In the case of `CC1=C(/C=C/C(C)=C/C=C/C(C)=C/C(=O)O)C(C)(C)CCC1` [TRETINOIN, all-trans retinoic acid], the “patients in whom remission was induced” value ([2]; several published studies) is listed as “about 48%” and the “duration of the remission, average” value [2] is listed as 3.5 months.

With “EGS-407: lead prototype, U54 replaced with thymidine, SEQ ID NO. 46 (AGAUGAUAGAAGGTUAGAAUCCUUCACGCCGC; guide RNA; Thymidine at tRNA position 54, rest of chemistry not given here)” the “RNase P-mediated cleavage activity compared to the all-RNA control” value (Substrate RNA (SUB-156)) was “promising”, the “degradation in 50% human serum” value [3] was “no degradation products were detected” and the “A50 (amount of RNase P required to achieve 50% cleavage)” value ([4]; 60 min, EGS in 10-fold excess relative to the RNA target) was 0.053 unit. For the same compound, the kcat ([4]; single turnover, first 5 min) was “indistinguishable from that of the all-RNA control” and the “turnover over a course of 60 min” value (target RNA SUB-156) was “about 3 times”.

With “APL A20: EGS SEQ ID NO. 11 targeted to the fusion junction of PML-RARα (guide GGGUCUCAGGCCCGGGUUCGAUUCCCGGUGGCUGC; chemistry not given here)” the “cleavage of the APL RNA at the fusion junction” value [1] was “induced cleavage”, the “effect on cell growth as measured by MTT assay” value (NB4/D5 cells) was “inhibitory to cell growth” and the “concentration above which dose dependent inhibition of NB4 cell growth was observed” value (NB4/D5 cells) was “above 3 μM”.
